The results in this text go back to patent publication US10946023B2, “Therapeutically active compounds and their methods of use” (Agios Pharmaceuticals, Inc., priority 2013, dated 2021).

The target of assay [1] is IDH1 wt/IDH1 R132H heterodimer (Homo sapiens (Human), UniProt O75874, R132H). The assay is described as follows: IDH1 wt/R132H heterodimer NADPH depletion (diaphorase/resazurin) assay. The class given is biochemical. Particulars: read-out: IDH1 wt/R132H NADPH/NADP IC50 not saturated. As for the experimental part: The following describes the experimental procedures that can be used to obtain data on columns 2 and 4 of Table 4 and column 2 of Table 5.
Sequence of IDH1 wt/IDH1 R132H heterodimer (O75874 whole entry R132H): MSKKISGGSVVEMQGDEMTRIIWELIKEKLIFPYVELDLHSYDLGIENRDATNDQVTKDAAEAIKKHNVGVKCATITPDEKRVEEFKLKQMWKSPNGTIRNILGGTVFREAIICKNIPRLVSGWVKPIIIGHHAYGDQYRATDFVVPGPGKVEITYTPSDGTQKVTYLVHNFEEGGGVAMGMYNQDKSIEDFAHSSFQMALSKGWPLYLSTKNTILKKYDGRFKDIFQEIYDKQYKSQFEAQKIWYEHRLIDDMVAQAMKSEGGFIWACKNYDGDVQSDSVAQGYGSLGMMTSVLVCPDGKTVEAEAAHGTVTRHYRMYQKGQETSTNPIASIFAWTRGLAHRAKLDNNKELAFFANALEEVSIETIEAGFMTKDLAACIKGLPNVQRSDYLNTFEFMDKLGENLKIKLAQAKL
Sequence of IDH1 wt/IDH1 R132H heterodimer (O75874 whole entry, stated change not applied): as the sequence (O75874 whole entry R132H) above, with H132R counted along it
In the primary reaction, the reduction of α-KG acid to 2-HG is accompanied by a concomitant oxidation of NADPH to NADP. The amount of NADPH remaining at the end of the reaction time is measured in a secondary diaphorase/resazurin reaction in which the NADPH is consumed in a 1:1 molar ratio with the conversion of resazurin to the highly fluorescent resorufin.
The mixture of compound, enzyme, and cofactor is pre-incubated at room temperature for 1 hr prior to the addition of alpha-ketoglutarate. To perform the secondary reaction, 10 uL of 1× buffer containing 36 μg/ml diaphorase and […] resazurin is added to the primary reaction and incubated for a further 5 minutes at 25° C. […] Compounds or compound dilutions are prepared in 100% DMSO concentration and diluted 1:50 into the final reaction. […] IC50s are determined.
IDH1 or IDH2 wildtype (wt) and mutant heterodimers are expressed and purified by methods known in the art. […] Co-expression of IDH1wt-his and IDH1R132C-flag is carried out in sf9 insect cells. […] Cells are disrupted with 4 passes through an M-Y110 Micro fluidizer (Microfluidics) set to 500 psi, and then centrifuged at 22,000 rcf for 20 min at 4° C. […]
A general note: Resazurin is reduced to fluorescent resorufin, in cell work by metabolically active cells.

The target of assay [2] is IDH1-R132 homodimer enzyme (R132H) (Homo sapiens (Human), UniProt O75874, R132H). The assay is described as follows: IDH1 R132H homodimer NADPH depletion assay (Table 4 column 3). The class given is biochemical. As for the experimental part: (§1) The following describes the experimental procedures that can be used to obtain data on columns 3 and 6 of Table 4.
Sequence of IDH1-R132 homodimer enzyme (R132H) (O75874 whole entry R132H): as the sequence (O75874 whole entry R132H) above
(§2) A test compound is prepared as 10 mM stock in DMSO and diluted to 50× final concentration in DMSO, for a 50 μl reaction mixture. IDH enzyme activity converting alpha-ketoglutarate to 2-hydroxyglutaric acid is measured using a NADPH depletion assay. In the assay the remaining cofactor is measured at the end of the reaction with the addition of a catalytic excess of diaphorase and resazurin, to generate a fluorescent signal in proportion to the amount of NADPH remaining. […] The reaction is started with the addition of 10 μl of Substrate Mix ([…], 5 mM alpha-ketoglutarate, in Assay Buffer) and the mixture is incubated for 90 minutes at room temperature.

Assay [3] deals with IDH1 R132C (Homo sapiens (Human), UniProt O75874, R132C). The experiment in a line: IDH1 R132C homodimer NADPH depletion assay (Table 4 column 6). The assay is classed as biochemical. As for the experimental part: as §1, §2
Sequence of IDH1 R132C (O75874 whole entry R132C): as the sequence (O75874 whole entry R132H) above, with H132C counted along it
The concentration of NADPH and alpha-ketoglutarate in the Substrate Buffer is 20 μM and 1 mM, respectively.

In assay [4] the test system is HT1080 cells. The experiment in a line: HT1080 cellular assay, 2-HG by LC-MS (IDH1 R132C). The assay is classed as cell-based. Particulars: Homo sapiens, HT-1080. As for the experimental part: The following describes the experimental procedures that can be used to obtain data on column 5 of Table 4.
Cells (HT1080 or U87MG) are grown in T125 flasks in DMEM containing 10% FBS, 1× penicillin/streptomycin and 500 ug/mL G418 (present in U87MG cells only). They are harvested by trypsin and seeded into 96 well white bottom plates at a density of 5000 cell/well in 100 ul/well in DMEM with 10% FBS. No cells are placed in columns 1 and 12. Cells are incubated overnight at 37° C. in 5% CO2. The next day test compounds are made up at 2× the final concentration and 100 ul are added to each cell well. The final concentration of DMSO is 0.2% and the DMSO control wells are plated in row G. The plates are then placed in the incubator for 48 hours. At 48 hours, 100 ul of media is removed from each well and analyzed by LC-MS for 2-HG concentrations. The cell plate is placed back in the incubator for another 24 hours. At 72 hours post compound addition, 10 mL/plate of Promega Cell Titer Glo reagent is thawed and mixed. The cell plate is removed from the incubator and allowed to equilibrate to room temperature. Then 100 ul of Promega Cell Titer Glo reagent is added to each well of media. The cell plate is then placed on an orbital shaker for 10 minutes and then allowed to sit at room temperature for 20 minutes. The plate is then read for luminescence with an integration time of 500 ms.
HT1080 cells are maintained in RPMI containing 10% FBS, 1× penicillin/streptomycin. […] The next day compounds are prepared in 100% DMSO and then diluted in media for a final concentration of 0.2% DMSO. Media is removed from the cell plates and 200 μL of the compound dilutions are added to each well. […] The cell plates are then allowed to incubate another 24 hours.

Assay [5] has as its target IDH2 R140Q (Homo sapiens (Human), UniProt P48735, R140Q). The assay is described as follows: IDH2 R140Q cofactor depletion assay (Table 4 column 7). The class given is biochemical. The source says:
The following describes the experimental procedures used to obtain data on column 7 of Table 4.
The reaction is terminated by the addition of a second enzyme, diaphorase, and a corresponding substrate, resazurin. Diaphorase reduces resazurin to the highly fluorescent resorufin with the concomitant oxidation of NADPH to NADP, both halting the IDH2 reaction by depleting the available cofactor pool and facilitating quantitation of the amount of cofactor remaining after a specific time period through quantitative production of an easily detected fluorophore.
The test compound is then incubated for one hour at room temperature with the enzyme; before starting the IDH2 reaction with the addition of 10 μl of substrate mix containing 4 μM NADPH and 1.6 mM α-KG in the buffer described above. After a further 16 hours of incubation at room temperature, the reaction is halted and the remaining NADPH measured through conversion of resazurin to resorufin by the addition of 25 μl Stop Mix (36 μg/ml diaphorase enzyme and 60 μM resazurin; in buffer).

The subject of assay [6] is U87MG pLVX-IDH2 R140Q-neo cells. The assay is described as follows: U87MG pLVX-IDH2 R140Q-neo cell based assay, 2-HG by LC-MS. Particulars: Homo sapiens, U-87 MG.

Sequence of IDH2 R140Q (P48735 40-452 R140Q): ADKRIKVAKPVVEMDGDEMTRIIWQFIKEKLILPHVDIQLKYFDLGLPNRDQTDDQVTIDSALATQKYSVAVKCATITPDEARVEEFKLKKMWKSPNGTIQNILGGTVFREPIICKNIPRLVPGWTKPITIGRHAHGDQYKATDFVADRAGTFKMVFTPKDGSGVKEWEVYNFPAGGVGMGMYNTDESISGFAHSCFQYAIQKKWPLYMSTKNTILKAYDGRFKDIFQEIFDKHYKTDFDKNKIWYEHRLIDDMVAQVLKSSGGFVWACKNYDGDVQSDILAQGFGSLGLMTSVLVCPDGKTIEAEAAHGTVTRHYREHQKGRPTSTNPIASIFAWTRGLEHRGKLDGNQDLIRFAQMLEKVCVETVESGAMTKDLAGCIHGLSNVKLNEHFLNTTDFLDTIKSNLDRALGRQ

Regarding `Cc1cccc(-c2nc(NC3CCC(F)(F)CC3)nc(N[C@H](C)C3CC3)n2)n1` [Compound 50], the IC50 in assay [1] is < 0.05 µM; in assay [2], < 0.05 µM; in assay [3], 0.05 to 0.1 µM.
On to `N#CC1(c2cc(Nc3nc(N[C@H]4CCC(F)(F)C4)nc(-c4cccc(C(F)(F)F)n4)n3)ccn2)CC1` [Compound 133], for which the IC50 in assay [4] lay in the range of 0.1 to 1 µM.
Same read-out and setting: under `N#CC1(c2cc(Nc3nc(N[C@@H]4CCC(F)(F)C4)nc(-c4cccc(C(F)(F)F)n4)n3)ccn2)CC1` [Compound 137] stands 0.05 to 0.1 µM.
As to `FC1(F)CCC(Nc2nc(NC3CCC(F)(F)C3)nc(-c3cncc(C(F)(F)F)n3)n2)C1` (centres unmarked) [Compound 138], the IC50 in assay [4] was < 0.05 µM.
On the same count and under the same terms, in the case of `N#CC1(c2cc(Nc3nc(NC4CCC(F)(F)C4)nc(-c4cccc(C(F)(F)F)n4)n3)ccn2)CC1` (centres unmarked) [Compound 151] it was 0.05 to 0.1 µM.
`FC1(F)CC[C@H](Nc2nc(Nc3ccnc(C(F)(F)F)c3)nc(-c3cccc(C(F)(F)F)n3)n2)C1` [Compound 158] showed an IC50 in assay [4] of 0.1 to 1 µM.
Regarding `FC1(F)CC[C@@H](Nc2nc(Nc3ccnc(C(F)(F)F)c3)nc(-c3cccc(C(F)(F)F)n3)n2)C1` [Compound 172], in assay [4], the IC50 is 0.05 to 0.1 µM.
The same measure, in the same setting: under `FC1(F)CCC(Nc2nc(Nc3ccnc(C(F)(F)F)c3)nc(-n3ccc(C(F)(F)F)n3)n2)C1` (centres unmarked) [Compound 173] stands 0.05 to 0.1 µM; under `N#CC1(c2cc(Nc3nc(N[C@H]4CCC(F)(F)C4)nc(-n4ccc(C(F)(F)F)n4)n3)ccn2)CC1` [Compound 174], 0.05 to 0.1 µM.
The same measure, in the same setting: under `CC(Nc1nc(Nc2ccnc(C(F)(F)F)c2)nc(-n2ccc(C(F)(F)F)n2)n1)C(F)(F)F` (centres unmarked) [Compound 177] stands 0.05 to 0.1 µM; under `FC1(F)CCC(Nc2nc(Nc3ccnc(C(F)(F)F)c3)nc(-c3cccc(C(F)(F)F)n3)n2)C1` (centres unmarked) [Compound 178], 0.1 to 1 µM.
Still for that read-out and setting: under `N#CC1(c2cc(Nc3nc(NC4CCC(F)(F)C4)nc(-n4ccc(C(F)(F)F)n4)n3)ccn2)CC1` (centres unmarked) [Compound 185] stands 0.05 to 0.1 µM.
In the case of `FC1(F)CC(Nc2nc(Nc3ccnc(C(F)(F)F)c3)nc(-c3cccc(C(F)(F)F)n3)n2)C1` [Compound 190], in assay [4], the IC50 lay within 0.1 to 1 µM.
With `CC(C)(O)CNc1nc(Nc2ccnc(C(F)(F)F)c2)nc(-c2cccc(C(F)(F)F)n2)n1` [Compound 288], the IC50 in assay [1], in assay [5] and in assay [6] was 0.1 to 1 µM throughout.
Turning to `N#CC1(c2cc(Nc3nc(N[C@@H]4CCC(F)(F)C4)nc(-n4ccc(C(F)(F)F)n4)n3)ccn2)CC1` [Compound 350], the IC50 in assay [4] lay within 0.05 to 0.1 µM.
For the molecule `FC1(F)CC[C@H](Nc2nc(Nc3ccnc(C(F)(F)F)c3)nc(-n3ccc(C(F)(F)F)n3)n2)C1` [Compound 393], the IC50 in assay [4] was in the range of 0.1 to 1 µM.
For `FC1(F)CC[C@@H](Nc2nc(N[C@H]3CCC(F)(F)C3)nc(-c3cncc(C(F)(F)F)n3)n2)C1` [Compound 399], the IC50 in assay [4] was < 0.05 µM.
Regarding `FC1(F)CC[C@H](Nc2nc(N[C@H]3CCC(F)(F)C3)nc(-c3cncc(C(F)(F)F)n3)n2)C1` [Compound 406], the IC50 in assay [4] is < 0.05 µM.
The same measure, in the same setting: under `FC1(F)CC[C@@H](Nc2nc(N[C@@H]3CCC(F)(F)C3)nc(-c3cncc(C(F)(F)F)n3)n2)C1` [Compound 410] stands < 0.05 µM.
